Key:
[1] = test system: human fibroblasts and human fibroblasts transfected with reprogramming factors; test: Cell growth and proliferation during reprogramming (viable cell count, BrdU, live-cell imaging); format: cell-based
Method: Human fibroblasts were seeded in a 6-well culture dish at a density of about 1×10^5 cells per well. The seeded cells were cultured for 26 days under the indicated culture conditions. To count the cell number, the cells were washed with PBS and treated with trypsin. The cell suspension was mixed with 0.4% (wt/vol) trypan blue solution, and the number of viable cells was counted on day 19 and day 26 using a hemocytometer (FIG. 10). Each experiment was performed in triplicate. Specifically, for BrdU incorporation, cells were incubated in the presence of 30 μM BrdU at 37° C. for 1 hour. After washing with PBS, the cells were fixed with 4% paraformaldehyde for 15 minutes and reacted in 1N HCl at room temperature for 15 minutes. The sample was washed and reacted with 0.1 M sodium tetraborate for 15 minutes. After washing, the cells were reacted with anti-BrdU antibody in 3% BSA-containing PBS for 1 hour, and then reacted with FITC-conjugated secondary antibody for 30 minutes. […] On day 12 of induction of reprogramming, virus expressing the cell-cycle regulators Geminin-GFP (green) and Cdt1-RFP (red) was introduced into the cells for 2 hours while slowly shaking the cells, and then an accelerator was added to the cells, followed by culture for 1 hour. The medium was replaced with fresh medium, and the cells were further cultured overnight and imaged with a fluorescence microscope. The images were obtained for at least 4 sections per sample, and the number of resting-stage cells (red) and dividing cells (green) was counted. The ratio of dividing cells was quantified by the green/red ratio.

[2] = test system: promoter regions of Nanog and Oct4; test: Chromatin immunoprecipitation of histone 3 methylation at Nanog and Oct4 promoters; format: cell-based, human
Method: Formaldehyde was added to a cell culture to fix the cells, and then the chromatin was fragmented to a suitable size by sonication. The chromatin was immunoprecipitated with antibodies to lysine residues 4 and 27 of histone 3, and then the DNA was collected and amplified by real-time polymerase chain reaction using primers for the Oct4 and Nanog promoter regions.

[3] = test system: human fibroblasts transfected with reprogramming factor OSKM; test: Quantification of protein damage caused by oxidative stress; format: cell-based; conditions: 1 mM
Method: On days 12, 19 and 26 of induction of reprogramming, protein was isolated from a control group and a nicotinamide-treated group (Nam), after which it was quantified and treated with 2,4-dinitrophenylhydrazine to expose the carbonyl group. The protein was separated according to molecular weight using 10% SDS-polyacrylamide gel, and then protein damage caused by oxidative stress was analyzed using dinitrophenyl antibody. After normalization to the expression level of β-actin, the degree of damage was quantified relative to the degree of damage to hFFs taken as 1.

[4] = test system: human foreskin fibroblasts (hFFs); test: Reprogramming efficiency of human fibroblasts into induced pluripotent stem cells (AP-positive colonies); format: cell-based; conditions: for efficiency of reprogramming by timing of treatment: 1 mM
Method: Reprogramming efficiency was determined by measuring the number of colonies showing a positive response in the pluripotency-specific marker alkaline phosphatase (AP) staining and having hESC-like morphology. For production of iPSC, human foreskin fibroblasts (hFFs) were seeded on gelatin-coated 6-well plates at a concentration of 1×10^5 cells per well at 6 hours before transfection and were transfected with virus in the presence of polybrene (6 μg/ml). At 5 days after the transfection, the hFFs were collected by trypsin treatment and reseeded on Matrigel-coated 6-well plates at a concentration of 5-6×10^4 cells per well in order to perform experiments in feeder-free conditions. The medium was replaced with MEF-CM medium containing 10 ng/ml of bFGF. The medium was replaced at 2-day intervals. At 20 days after the transfection, hESC-like colonies were collected and transferred to 12-well plates having MEFs as feeder cells, and then the colonies were continuously cultured using the hESC culture method described in Example 1. In order to measure the efficiency of reprogramming into human induced pluripotent stem cells, the number of colonies stained with the embryonic stem cell marker ALP on the Matrigel-coated 6-well plate was counted, and the efficiency of reprogramming was calculated. Each experiment was performed in triplicate. AP staining was performed using a commercial AP kit (Sigma) according to the manufacturer's instruction. Images of AP-positive cells were recorded with HP Scanjet G4010. Also, bight field images were obtained with an Olympus microscope (IX51, Olympus, Japan). In order to examine the change in reprogramming efficiency of human fibroblasts caused by nicotinamide, retrovirus expressing the reprogramming factors Oct4, Sox2, Klf4 and c-Myc was transfected at an MOI of 1. Reprogramming efficiencies caused by the addition of nicotinamide and other NAD precursors were examined.

[5] = test system: H9 human embryonic stem cells; test: BrdU incorporation assay in human embryonic stem cells in mTeSR1; format: cell-based
Method: For 5-bromo)-2-deoxyuridine (BrdU; BD Pharmingen, San Diego) incorporation assays, human embryonic stem cells were cultured on Matrigel-coated 4-well LabTec chamber slides for 4 days.
Specifically, for BrdU incorporation, cells were incubated in the presence of 30 μM BrdU at 37° C. for 1 hour. After washing with PBS, the cells were fixed with 4% paraformaldehyde for 15 minutes and reacted in 1N HCl at room temperature for 15 minutes. The sample was washed and reacted with 0.1 M sodium tetraborate for 15 minutes. After washing, the cells were reacted with anti-BrdU antibody in 3% BSA-containing PBS for 1 hour, and then reacted with FITC-conjugated secondary antibody for 30 minutes.
In order to verify the effect of nicotinamide on the proliferation of pluripotent stem cells, a BrdU incorporation assay was performed. Nicotinamide was added to mTeSR1 (CDM) at various concentrations, and the effects thereof were examined.

**Q.** How did the “ratio of proliferating cells (live cell imaging)” value ([1]; 1 mM, day 12 of induction of reprogramming) turn out when `NC(=O)c1cccnc1` [nicotinamide] was run?
**A.** Its value is “increased”.

**Q.** And the “number of healthy viable cells” value ([1]; 0.1, 1 and 10 mM, days 19 and 26, concentration-dependent)?
**A.** Its value is “increased”.

**Q.** What about the “number of actually dividing cells incorporated with BrdU” value ([1]; 0.1-1 mM, day 19 of induction of reprogramming) of the same compound?
**A.** The value was “significantly increased”.

**Q.** And the “optimal nicotinamide concentration for promoting cell growth” value ([1]; culture process for inducing reprogramming)?
**A.** The value was 1 mM.

**Q.** What about the “methylation of lysine residue 4 of histone 3 in promoter regions of Nanog and Oct4” value [2] of the same compound?
**A.** Its value is “increased”.

**Q.** What about the “methylation of residue 27 of histone 3 in promoter regions of Nanog and Oct4” value [2] of the same compound?
**A.** Its value is “decreased”.

**Q.** What about the “amount of damaged protein (oxidative stress)” value [3] of the same compound?
**A.** Its value is “decreased”.

**Q.** And the “increase in reprogramming efficiency (AP-positive colonies)” value (from here on “increase … (AP-positive colonies)”) ([4]; 0.1 mM nicotinamide, compared to untreated group)?
**A.** The value was 13 times.

**Q.** What about the “increase … (AP-positive colonies)” value ([4]; 1 mM nicotinamide, compared to untreated group) of the same compound?
**A.** The value was 28 times.

**Q.** And the “increase … (AP-positive colonies)” value ([4]; 10 mM nicotinamide, compared to untreated group)?
**A.** Its value is 16 times.

**Q.** And the “increase … (AP-positive colonies)” value ([4]; 20 mM nicotinamide, compared to untreated group)?
**A.** Its value is 2 times.

**Q.** What about the “increase … (AP-positive colonies)” value ([4]; compared to the addition of other NAD precursors, OSKM retrovirus MOI 1) of the same compound?
**A.** Its value is “about 17 times”.

**Q.** What about the “efficiency of reprogramming by timing of treatment” value ([4]; continuous treatment throughout the process of inducing reprogramming) of the same compound?
**A.** Its value is “highest increase”.

**Q.** What about the “reprogramming efficiency, same cell number reseeded” value ([4]; nicotinamide for 5 days after infection, not added after reseeding, vs untreated control) of the same compound?
**A.** The value was “increase in reprogramming efficiency”.

**Q.** What about the “reprogramming efficiency, same cell number reseeded” value ([4]; nicotinamide only after reseeding (21 days), not in initial stage, vs untreated) of the same compound?
**A.** Its value is “increase in reprogramming efficiency”.

**Q.** What about the “efficiency of reprogramming by timing of treatment” value ([4]; treatment in initial stage immediately after viral infection) of the same compound?
**A.** The value was “most effectively increased”.

**Q.** And the “increase in BrdU incorporation” value ([5]; 0.1 mM in mTeSR1, compared to cells cultured in mTeSR1)?
**A.** The value was 1.6 times.

**Q.** What about the “increase in BrdU incorporation” value ([5]; 1 mM in mTeSR1, compared to cells cultured in mTeSR1) of the same compound?
**A.** Its value is 1.2 times.
